The text below walks through data of article PMC6372683, “Mechanism of the natural product moracin-O derived MO-460 and its targeting protein hnRNPA2B1 on HIF-1α inhibition” (Experimental & Molecular Medicine, 2019).

Data set [1] concerns the target T1, hnRNPA2B1 GRD (202–353 aa) (Homo sapiens, UniProt P22626).
T1 construct: 202–353 aa; His; made in house; host or cells: bacteria (pET28A vector)
Description: BLItz association-dissociation binding assay, GRD of hnRNPA2B1. The following applies: 6XHis tagged protein, Con. 5 uM, biotin-MO-460 on streptavidin tip. The protocol:
(§1) The binding capacity of hnRNPA2B1 to Biotin-MO-460 was also analyzed using a BLItz™ (Fortebio, Inc., CA, US) instrument with a streptavidin-coated biosensor tip (Pall, USA). The streptavidin-coated tips were pre-wetted for 10 min in an incubation buffer (10 mM HEPES pH 7.4, 1% BSA and 0.05% Tween 20). The streptavidin-coated tips were immobilized with 1 μM Biotin-MO-460 in incubation buffer (10 mM HEPES pH 7.4, 1% BSA and 0.05% Tween 20) for 5 min. […] The concentrations were then incubated with HEPES for another 3 min to desorb the protein. Analysis of the accurate and precise kinetic constants was performed by the BLItz data analysis software (BLItz Pro 1.1).

The next data set has as its target T2, hnRNPA2B1 RRM (1–193 aa) (Homo sapiens, UniProt P22626).
T2 construct: 1–193 aa; His; made in house; host or cells: bacteria (pET28A vector)
The data set is described as follows: BLItz association-dissociation binding assay, RRM of hnRNPA2B1. As to conditions: 6XHis tagged protein, biotin-MO-460 on streptavidin tip. The procedure: as §1

Data set [2] addresses T3, full-length hnRNPA2B1 (1–353 aa) (Homo sapiens, UniProt P22626).
T3 construct: 1–353 aa; His; made in house; host or cells: bacteria (pET28A vector)
The data set is described as follows: BLItz association-dissociation binding assay, full-length hnRNPA2B1. The following applies: 6XHis tagged protein, Con. 5 uM, biotin-MO-460 on streptavidin tip. The protocol:
as §1

In data set [3] the target is T4, hnRNPA2B1 domain-based constructs fused to GFP (Homo sapiens, UniProt P22626).
T4 construct: expressed in transfected cells
Description: Pull-down assay with GFP-fused domain constructs of hnRNPA2B1. It is filed as binding.

Data set [4] concerns hnRNPA2B1 domain-based constructs fused to GFP. The description is as above. It counts as binding, human. The following applies: GFP-fused N-terminal RNA recognition motifs.
The subject of a further data set is HIF-1α. The data set is described as follows: HIF-1α accumulation under real hypoxia (1% oxygen), western blotting and immunostaining. The following applies: 24 h. It is filed as cell-based, human. The procedure: For immunofluorescence observation, Hep3B cells were seeded on microplates at 2 or 5 × 10^4 cells/mL and cultured for 18 h. […] The medium in the microplate wells was then removed and cells were fixed with 3.7% formaldehyde in PBS for 15 min then permeabilized for 5 min with 100% cold MeOH. Cells were washed with PBS containing 1% bovine serum albumin (PBS-1% BSA), and then treated with 5% bovine serum albumin for 20 min. The cells in each well were treated with HIF-1α antibody in PBS-0.1% BSA then placed in a humidified atmosphere of 5% CO2 at 37 °C and incubated for 60 min. After being washed with PBS-0.1% BSA, treated wells of HIF-1α were incubated with Alexa Fluor 488-conjugated mouse anti-IgG antibody in PBS-0.1% BSA then incubated at room temperature for 60 min. After being washed with PBS-0.1% BSA, the dish wells were overlaid with Hoechst 33342 for 5 min at room temperature and then washed with PBS-0.1% BSA. Fluorescence was photographed with an inverted ECLIPSE Ti-U microscope (Nikon Corporation, Japan).
A general note: A western blot detects proteins with antibodies after separation by electrophoresis.

T2 sequence (P22626 1-193): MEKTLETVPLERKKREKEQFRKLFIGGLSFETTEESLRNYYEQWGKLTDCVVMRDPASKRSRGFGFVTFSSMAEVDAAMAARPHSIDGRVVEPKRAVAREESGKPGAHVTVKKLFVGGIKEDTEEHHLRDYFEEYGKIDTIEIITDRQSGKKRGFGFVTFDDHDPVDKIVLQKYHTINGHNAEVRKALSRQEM
T3 sequence (P22626 whole entry, the tested form may be a part): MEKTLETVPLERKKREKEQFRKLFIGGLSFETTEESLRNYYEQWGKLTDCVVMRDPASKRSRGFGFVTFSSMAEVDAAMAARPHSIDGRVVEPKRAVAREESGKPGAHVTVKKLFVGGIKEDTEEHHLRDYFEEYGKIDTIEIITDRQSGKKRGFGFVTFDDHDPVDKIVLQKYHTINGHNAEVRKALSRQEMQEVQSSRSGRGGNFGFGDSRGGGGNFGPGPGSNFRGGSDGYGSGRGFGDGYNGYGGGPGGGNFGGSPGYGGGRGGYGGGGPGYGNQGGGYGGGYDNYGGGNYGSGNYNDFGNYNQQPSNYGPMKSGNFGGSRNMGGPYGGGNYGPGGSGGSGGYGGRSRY
T1 sequence (P22626 202-353): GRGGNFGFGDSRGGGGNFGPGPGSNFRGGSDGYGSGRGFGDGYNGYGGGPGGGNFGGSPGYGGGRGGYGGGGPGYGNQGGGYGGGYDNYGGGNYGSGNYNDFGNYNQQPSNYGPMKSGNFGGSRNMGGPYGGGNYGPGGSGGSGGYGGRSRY

With `CC(C)(O)[C@H]1Cc2cc3cc(-c4ccc(OCC(=O)NCCOCCOCCNC(=O)CCCC[C@@H]5SC[C@@H]6NC(=O)N[C@@H]65)cc4)oc3cc2O1` [biotin-MO-460, (R)-5-(2-Oxo-hexahydro-thieno[3,4-d]-imidazol-4-yl)-pentanoic acid-(2-{2-[2-(2-{4-[6-(1-hydroxy-1-methyl-ethyl)-5,6-dihydro-benzo[1,2-b;5,4-b']difuran-2-yl]-phenoxy}-acetyl-amino)-ethoxy]-ethoxy}-ethyl)-amide], the melting point was 165.1 to 168.2 °C (dec.). The molecule also showed a Kd in data set [1] of 6.6 µM. Further, at hnRNPA2B1 RRM (1–193 aa), the Kd entry is reported as “no specific interactions”. The molecule also returned an equilibrium dissociation constant (Kd) in data set [2] of 11.4 µM. Besides, in data set [3] (GFP-fused GRD), the “binding of C-terminal glycine-rich domain (GRD) in pull-down” value is reported as “strongly bound”. Besides, the “binding of full-length hnRNPA2B1 in pull-down” value in data set [3] (GFP-fused full-length hnRNPA2B1) is given as “strongly bound”. The “binding of RRM1, RRM2 and RRM1-RRM2 in pull-down” value in data set [4] is recorded as “did not bind”.

`CC(C)(O)[C@H]1Cc2cc3cc(-c4cc(O)cc(O)c4)oc3cc2O1` [(R)-(-)-moracin O, (R)-(-)-moracin-O, reference compound]: the HIF-1α accumulation entry with HIF-1α is “reduction in HIF-1α accumulation”.

What is called Kd is the equilibrium constant for the complex coming apart. The low end stands for a tighter complex, the high end for a looser complex. In general, melting point refers to the temperature of the solid-liquid transition.
